The values that follow come from patent US8524718B2, “Heteroaromatic derivatives and their use as positive allosteric modulators of metabotropic glutamate receptors” (Addex Pharma S.A., priority 2007, dated 2013).

Molecules are shown by their SMILES. Some results are limits rather than exact numbers.

The target of series [1] is T1, recombinant human mGluR4a receptors (Homo sapiens, UniProt Q14833).
T1 construct: expressed in transfected cells
Briefly: mGluR4 assay on HEK-expressing human mGluR4 (fluorescent cell based Ca2+ mobilization assay, FLIPR). The following applies: HEK-293 cells expressing hmGluR4; enhancement of EC25 glutamate response; mean of at least three independent experiments in duplicate; read-out: Ca^2+ Flux (mean EC50). The source says:
mGluR4 Assay on HEK-Expressing Human mGluR4 The compounds of the present invention are positive allosteric modulators of mGluR4 receptor. Their activity was examined on recombinant human mGluR4a receptors by detecting changes in intracellular Ca^2+ concentration, using the fluorescent Ca^2+-sensitive dye Fluo-4-(AM) and a Fluorometric Imaging Plate Reader (FLIPR, Molecular Devices, Sunnyvale, Calif.) The cDNA encoding the human metabotropic glutamate receptor (hmGluR4), (accession number NM_000841.1, NCBI Nucleotide database browser), was subcloned into an expression vector containing also the hygromycin resistance gene. In parallel, the cDNA encoding a G protein allowing redirection of the activation signal to intracellular calcium flux was subcloned into a different expression vector containing also the puromycin resistance gene. Transfection of both these vectors into HEK293 cells with PolyFect reagent (Qiagen) according to supplier's protocol, and hygromycin and puromycin treatment allowed selection of antibiotic resistant cells which had integrated stably one or more copies of the plasmids. Positive cellular clones expressing hmGluR4 were identified in a functional assay measuring changes in calcium fluxes in response to glutamate or selective known mGluR4 orthosteric agonists and antagonists. HEK-293 cells expressing hmGluR4 were maintained in media containing DMEM, dialyzed Fetal Calf Serum (10%), Glutamax™ (2 mM), Penicillin (100 units/mL), Streptomycin (100 μg/mL), Geneticin (100 μg/mL) and Hygromycin-B (40 μg/mL) and puromycin (1 μg/mL) at 37° C./5% CO2. Human mGluR4 HEK-293 cells were plated out 24 hours prior to FLIPR^384 assay in black-walled, clear-bottomed, poly-L-ornithine-coated 384-well plates at a density of 25,000 cells/well in a glutamine/glutamate free DMEM medium containing foetal bovine serum (10%), penicillin (100 units/mL) and streptomycin (100 μg/mL) at 37 C/5% CO2. On the day of the assay, the medium was aspirated and the cells were loaded with a 3 μM solution of Fluo-4-AM (LuBioScience, Lucerne, Switzerland) in 0.03% pluronic acid. After 1 hour at 37 C/5% CO2, the non incorporated dye was removed by washing cell plate with the assay buffer and the cells were left in the dark at room temperature for six hours before testing. All assays were performed in a pH 7.4 buffered-solution containing 20 mM HEPES, 143 mM NaCl, 6 mM KCl, 1 mM MgSO4, 1 mM CaCl2, 0.125 mM sulfapyrazone, 0.1% glucose. After 10 s of basal fluorescence recording, various concentrations of the compounds of the invention were added to the cells. Changes in fluorescence levels were first monitored for 180 s in order to detect any agonist activity of the compounds. Then the cells were stimulated by an EC25 glutamate concentration for an additional 110 s in order to measure enhancing activities of the compounds of the invention. EC25 glutamate concentration is the concentration giving 25% of the maximal glutamate response. The concentration-response curves of representative compounds of the present invention were generated using the Prism GraphPad software (Graph Pad Inc, San Diego, USA). The curves were fitted to a four-parameter logistic equation: (Y=Bottom+(Top−Bottom)/(1+10^((Log EC50−X)*Hill Slope) allowing the determination of EC50 values. The Table 5 below represents the mean EC50 obtained from at least three independent experiments of selected molecules performed in duplicate.
(A change in cytosolic calcium serves as a functional read-out for many receptors and channels.)

T1 sequence (Q14833 33-912): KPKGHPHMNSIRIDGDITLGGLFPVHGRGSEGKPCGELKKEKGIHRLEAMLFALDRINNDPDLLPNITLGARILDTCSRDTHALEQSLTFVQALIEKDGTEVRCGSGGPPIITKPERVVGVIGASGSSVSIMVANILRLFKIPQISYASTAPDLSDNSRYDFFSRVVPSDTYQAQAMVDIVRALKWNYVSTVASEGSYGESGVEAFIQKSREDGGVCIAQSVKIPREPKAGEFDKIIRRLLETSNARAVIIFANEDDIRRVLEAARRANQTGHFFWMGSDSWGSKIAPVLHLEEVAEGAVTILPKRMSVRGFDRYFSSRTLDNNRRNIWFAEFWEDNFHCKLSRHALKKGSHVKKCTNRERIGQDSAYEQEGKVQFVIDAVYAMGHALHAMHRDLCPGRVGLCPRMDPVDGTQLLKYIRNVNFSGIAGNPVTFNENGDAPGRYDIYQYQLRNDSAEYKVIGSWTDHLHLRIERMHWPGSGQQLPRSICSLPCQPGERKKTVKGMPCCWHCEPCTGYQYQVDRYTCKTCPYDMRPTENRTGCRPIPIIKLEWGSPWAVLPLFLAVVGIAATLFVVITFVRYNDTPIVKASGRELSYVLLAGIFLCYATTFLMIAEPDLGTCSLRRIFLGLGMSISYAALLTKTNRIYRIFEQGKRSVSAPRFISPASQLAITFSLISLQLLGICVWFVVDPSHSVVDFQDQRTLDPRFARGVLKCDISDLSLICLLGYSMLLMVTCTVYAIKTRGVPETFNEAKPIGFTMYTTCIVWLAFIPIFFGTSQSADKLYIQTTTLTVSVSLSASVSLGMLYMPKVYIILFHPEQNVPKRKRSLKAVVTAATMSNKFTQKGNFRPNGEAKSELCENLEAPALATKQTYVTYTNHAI

As usually defined, the EC50 is the concentration that produces a half-maximal response. For orientation: melting point means the temperature of the solid-liquid transition. The compound `Cc1n[nH]cc1-c1csc(Nc2ccccc2)n1` [Compound 1-7, 4-(3-Methyl-1H-pyrazol-4-yl)-N-phenylthiazol-2-amine] returned a melting point of 200 to 202 °C. The EC50 in series [1] lay in the range of 1000 to 10000 nM.

Take `FC(F)(F)c1sc(Nc2ccccn2)nc1-c1cn[nH]c1` [Compound 1-54, 4-(1H-Pyrazol-4-yl)-N-(pyridin-2-yl)-5-(trifluoromethyl)thiazol-2-amine]: the melting point is 250 °C (dec.). Further, the EC50 in series [1] was in the range of 500 to 1000 nM.

On to `Cc1n[nH]cc1-c1nsc(Nc2ccccc2Cl)n1` [Compound 1-3, N-(2-Chlorophenyl)-3-(3-methyl-1H-pyrazol-4-yl)-1,2,4-thiadiazol-5-amine], for which the melting point was 180 to 182 °C. Moreover, the EC50 in series [1] lay within 1000 to 10000 nM.

With `CCCc1n[nH]cc1-c1nsc(Nc2ccccc2)n1` [Compound 1-8, N-Phenyl-3-(3-propyl-1H-pyrazol-4-yl)-1,2,4-thiadiazol-5-amine], the melting point lay within 170 to 172 °C. Besides, in series [1], the EC50 lay within 1000 to 10000 nM.

Consider `Cc1cccc(Nc2nc(-c3cn[nH]c3)c(C)s2)n1` [Compound 1-18, 5-Methyl-N-(6-methylpyridin-2-yl)-4-(1H-pyrazol-4-yl)thiazol-2-amine], for which the melting point came out at 306 °C. The 50% effective concentration (EC50) in series [1] is less than 500 nM.

On to `N#Cc1sc(Nc2ccccn2)nc1-c1cn[nH]c1` [Compound 1-47, 4-(1H-Pyrazol-4-yl)-2-(pyridin-2-ylamino)thiazol-5-carbonitrile], for which the melting point is 250 °C (dec.). In addition, the EC50 in series [1] was less than 500 nM.

As to `Clc1sc(Nc2ccccn2)nc1-c1cn[nH]c1` [Compound 1-32, 5-Chloro-4-(1H-pyrazol-4-yl)-N-(pyridin-2-yl)thiazol-2-amine], the melting point was 282 to 285 °C. Further, in series [1], the EC50 is less than 500 nM.

In turn, `c1ccc(Nc2nc(-c3cn[nH]c3)ns2)cc1` [Compound 1-6, N-Phenyl-3-(1H-pyrazol-4-yl)-1,2,4-thiadiazol-5-amine] had a melting point of 192 °C. Besides, the EC50 in series [1] lay in the range of 1000 to 10000 nM.

`CCCc1n[nH]cc1-c1nsc(Nc2ccccn2)n1` [Compound 1-9, 3-(3-Propyl-1H-pyrazol-4-yl)-N-(pyridin-2-yl)-1,2,4-thiadiazol-5-amine] displayed a melting point of 248 to 250 °C. The EC50 in series [1] lay within 1000 to 10000 nM.

With `Clc1cccc(Nc2nc(-c3cn[nH]c3)cs2)n1` [Compound 1-49, N-(6-Chloropyridin-2-yl)-4-(1H-pyrazol-4-yl)thiazol-2-amine], the melting point was 295 °C (dec.). In series [1], the EC50 is less than 500 nM.

`Cc1n[nH]cc1-c1nsc(Nc2cccc(F)n2)n1` [Compound 1-43, N-(6-Fluoropyridin-2-yl)-3-(3-methyl-1H-pyrazol-4-yl)-1,2,4-thiadiazol-5-amine] came in with a melting point greater than 300 °C. Besides, the EC50 in series [1] was less than 500 nM.

`CCc1n[nH]cc1-c1csc(Nc2ccccn2)n1` [Compound 1-61, 4-(3-Ethyl-1H-pyrazol-4-yl)-N-(pyridin-2-yl)thiazol-2-amine] had a melting point of 196 to 198 °C. Also, in series [1], the EC50 is less than 500 nM.
